US11572399B2, “Long-acting GIP peptide analogues” (University of Copenhagen, priority 2017, dated 2023)
Peptide text beside a SMILES is read from it. * marks the point of attachment. C16 diacid = O=C(O)CCCCCCCCCCCCCCC(=O)*

How the values were obtained:
human GIP receptor [1] = target: T1, human GIP receptor (Homo sapiens, UniProt P48546); assay: cAMP accumulation assay, agonism (ligand alone); format: cell-based; conditions: COS-7 cells, Table 1; for Emax: COS-7, intrinsic cAMP activity; for cAMP agonism Emax: intrinsic cAMP activity; for EC50: read-out: cAMP agonism nM (EC50)
T1 construct: host or cells: COS-7, transient transfection (calcium phosphate), cDNA in pCMV-Script
T1 sequence (P48546 22-466): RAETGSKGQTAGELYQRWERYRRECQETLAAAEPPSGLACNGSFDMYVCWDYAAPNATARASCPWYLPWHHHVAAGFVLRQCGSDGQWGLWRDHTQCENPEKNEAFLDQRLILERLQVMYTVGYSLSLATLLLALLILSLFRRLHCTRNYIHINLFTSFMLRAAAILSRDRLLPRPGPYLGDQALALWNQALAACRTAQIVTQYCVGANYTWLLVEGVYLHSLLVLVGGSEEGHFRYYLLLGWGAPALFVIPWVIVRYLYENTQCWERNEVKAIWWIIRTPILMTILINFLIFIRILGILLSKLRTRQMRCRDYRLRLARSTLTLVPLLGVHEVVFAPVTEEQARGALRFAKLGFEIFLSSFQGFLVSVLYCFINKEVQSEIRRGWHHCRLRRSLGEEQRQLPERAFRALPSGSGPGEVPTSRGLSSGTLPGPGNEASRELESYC

human GIP receptor [2] = target: T1, human GIP receptor; assay: cAMP accumulation assay, antagonism of a GIP-mediated cAMP response (50-80% of max); format: cell-based; conditions: transiently transfected COS-7 cells; Table 1 and text; read-out: cAMP antagonism nM (IC50, antagonistic potency)
Method: The day after, the cells were washed twice with Hepes buffered saline (HBS) buffer and incubated with HBS and 1 mM 3-isobutyl-1-methylxanthine (IBMX) for 30 min at 37° C. […] The HitHunter™ cAMP XS assay (DiscoveRx) was carried out according to the manufacturer's instructions.

Structure (SMILES)	Emax (human GIP receptor [1])	IC50 (human GIP receptor [2])	cAMP agonism Emax (human GIP receptor [1])	EC50 (human GIP receptor [1])
CC[C@H](C)[C@H](NC(=O)[C@H](CO)NC(=O)[C@H](Cc1ccc(O)cc1)NC(=O)[C@H](CC(=O)O)NC(=O)[C@H](CO)NC(=O)[C@@H](NC(=O)[C@H](CCCCNC(=O)CCCCCCCCCCCCCCC(=O)O)NC(=O)[C@@H](NC(=O)CNC(=O)[C@@H](N)CCC(=O)O)[C@@H](C)O)[C@@H](C)CC)C(=O)N[C@@H](C)C(=O)N[C@@H](CCSC)C(=O)N[C@@H](CC(=O)O)C(=O)N[C@@H](CCCCN)C(=O)N[C@H](C(=O)N[C@@H](Cc1c[nH]cn1)C(=O)N[C@@H](CCC(N)=O)C(=O)N[C@@H](CCC(N)=O)C(=O)N[C@@H](CC(=O)O)C(=O)N[C@@H](Cc1ccccc1)C(=O)N[C@H](C(=O)N[C@@H](CC(N)=O)C(=O)N[C@@H](Cc1c[nH]c2ccccc12)C(=O)N[C@@H](CC(C)C)C(=O)N[C@@H](CC(C)C)C(=O)N[C@@H](C)C(=O)N[C@@H](CCC(N)=O)C(=O)N[C@@H](CCCCN)C(N)=O)C(C)C)[C@@H](C)CC [AT297, [hGIP(3-30)NH2[F6K]-C16diacid/6]]	19%	603 nM		
CC[C@H](C)[C@H](NC(=O)[C@H](CO)NC(=O)[C@H](Cc1ccc(O)cc1)NC(=O)[C@H](CC(=O)O)NC(=O)[C@H](CO)NC(=O)[C@H](CCCCNC(=O)CCCCCCCCCCCCCCC(=O)O)NC(=O)[C@H](Cc1ccccc1)NC(=O)[C@@H](NC(=O)CNC(=O)[C@@H](N)CCC(=O)O)[C@@H](C)O)C(=O)N[C@@H](C)C(=O)N[C@@H](CCSC)C(=O)N[C@@H](CC(=O)O)C(=O)N[C@@H](CCCCN)C(=O)N[C@H](C(=O)N[C@@H](Cc1c[nH]cn1)C(=O)N[C@@H](CCC(N)=O)C(=O)N[C@@H](CCC(N)=O)C(=O)N[C@@H](CC(=O)O)C(=O)N[C@@H](Cc1ccccc1)C(=O)N[C@H](C(=O)N[C@@H](CC(N)=O)C(=O)N[C@@H](Cc1c[nH]c2ccccc12)C(=O)N[C@@H](CC(C)C)C(=O)N[C@@H](CC(C)C)C(=O)N[C@@H](C)C(=O)N[C@@H](CCC(N)=O)C(=O)N[C@@H](CCCCN)C(N)=O)C(C)C)[C@@H](C)CC [AT298, [hGIP(3-30)NH2[I7K]-C16diacid/7]]		33 nM	no ag.	
CC[C@H](C)[C@H](NC(=O)[C@H](CO)NC(=O)[C@H](Cc1ccc(O)cc1)NC(=O)[C@H](CC(=O)O)NC(=O)[C@H](CCCCNC(=O)CCCCCCCCCCCCCCC(=O)O)NC(=O)[C@@H](NC(=O)[C@H](Cc1ccccc1)NC(=O)[C@@H](NC(=O)CNC(=O)[C@@H](N)CCC(=O)O)[C@@H](C)O)[C@@H](C)CC)C(=O)N[C@@H](C)C(=O)N[C@@H](CCSC)C(=O)N[C@@H](CC(=O)O)C(=O)N[C@@H](CCCCN)C(=O)N[C@H](C(=O)N[C@@H](Cc1c[nH]cn1)C(=O)N[C@@H](CCC(N)=O)C(=O)N[C@@H](CCC(N)=O)C(=O)N[C@@H](CC(=O)O)C(=O)N[C@@H](Cc1ccccc1)C(=O)N[C@H](C(=O)N[C@@H](CC(N)=O)C(=O)N[C@@H](Cc1c[nH]c2ccccc12)C(=O)N[C@@H](CC(C)C)C(=O)N[C@@H](CC(C)C)C(=O)N[C@@H](C)C(=O)N[C@@H](CCC(N)=O)C(=O)N[C@@H](CCCCN)C(N)=O)C(C)C)[C@@H](C)CC [AT299, [hGIP(3-30)NH2[S8K]-C16diacid/8]] (H-EGTFIK(C16 diacid)DYSIAMDKIHQQDFVNWLLAQK-NH2; N-terminus assumed)	15.2%	199 nM		15 nM
CC[C@H](C)[C@H](NC(=O)[C@H](CO)NC(=O)[C@H](Cc1ccc(O)cc1)NC(=O)[C@H](CCCCNC(=O)CCCCCCCCCCCCCCC(=O)O)NC(=O)[C@H](CO)NC(=O)[C@@H](NC(=O)[C@H](Cc1ccccc1)NC(=O)[C@@H](NC(=O)CNC(=O)[C@@H](N)CCC(=O)O)[C@@H](C)O)[C@@H](C)CC)C(=O)N[C@@H](C)C(=O)N[C@@H](CCSC)C(=O)N[C@@H](CC(=O)O)C(=O)N[C@@H](CCCCN)C(=O)N[C@H](C(=O)N[C@@H](Cc1c[nH]cn1)C(=O)N[C@@H](CCC(N)=O)C(=O)N[C@@H](CCC(N)=O)C(=O)N[C@@H](CC(=O)O)C(=O)N[C@@H](Cc1ccccc1)C(=O)N[C@H](C(=O)N[C@@H](CC(N)=O)C(=O)N[C@@H](Cc1c[nH]c2ccccc12)C(=O)N[C@@H](CC(C)C)C(=O)N[C@@H](CC(C)C)C(=O)N[C@@H](C)C(=O)N[C@@H](CCC(N)=O)C(=O)N[C@@H](CCCCN)C(N)=O)C(C)C)[C@@H](C)CC [AT300, [hGIP(3-30)NH2[D9K]-C16diacid/9]] (H-EGTFISK(C16 diacid)YSIAMDKIHQQDFVNWLLAQK-NH2; N-terminus assumed)		22 nM	no ag.	
CC[C@H](C)[C@H](NC(=O)[C@H](CCCCN)NC(=O)[C@H](CC(=O)O)NC(=O)[C@H](CCSC)NC(=O)[C@H](CCCCNC(=O)CCCCCCCCCCCCCCC(=O)O)NC(=O)[C@@H](NC(=O)[C@H](CO)NC(=O)[C@H](Cc1ccc(O)cc1)NC(=O)[C@H](CC(=O)O)NC(=O)[C@H](CO)NC(=O)[C@@H](NC(=O)[C@H](Cc1ccccc1)NC(=O)[C@@H](NC(=O)CNC(=O)[C@@H](N)CCC(=O)O)[C@@H](C)O)[C@@H](C)CC)[C@@H](C)CC)C(=O)N[C@@H](Cc1c[nH]cn1)C(=O)N[C@@H](CCC(N)=O)C(=O)N[C@@H](CCC(N)=O)C(=O)N[C@@H](CC(=O)O)C(=O)N[C@@H](Cc1ccccc1)C(=O)N[C@H](C(=O)N[C@@H](CC(N)=O)C(=O)N[C@@H](Cc1c[nH]c2ccccc12)C(=O)N[C@@H](CC(C)C)C(=O)N[C@@H](CC(C)C)C(=O)N[C@@H](C)C(=O)N[C@@H](CCC(N)=O)C(=O)N[C@@H](CCCCN)C(N)=O)C(C)C [AT304, [hGIP(3-30)NH2[A13K]-C16diacid/13]] (H-EGTFISDYSIK(C16 diacid)MDKIHQQDFVNWLLAQK-NH2; N-terminus assumed)		199 nM	no ag.	
CC[C@H](C)[C@H](NC(=O)[C@H](CO)NC(=O)[C@H](Cc1ccc(O)cc1)NC(=O)[C@H](CC(=O)O)NC(=O)[C@H](CO)NC(=O)[C@@H](NC(=O)[C@H](Cc1ccccc1)NC(=O)[C@@H](NC(=O)CNC(=O)[C@@H](N)CCC(=O)O)[C@@H](C)O)[C@@H](C)CC)C(=O)N[C@@H](C)C(=O)N[C@@H](CCCCNC(=O)CCCCCCCCCCCCCCC(=O)O)C(=O)N[C@@H](CC(=O)O)C(=O)N[C@@H](CCCCN)C(=O)N[C@H](C(=O)N[C@@H](Cc1c[nH]cn1)C(=O)N[C@@H](CCC(N)=O)C(=O)N[C@@H](CCC(N)=O)C(=O)N[C@@H](CC(=O)O)C(=O)N[C@@H](Cc1ccccc1)C(=O)N[C@H](C(=O)N[C@@H](CC(N)=O)C(=O)N[C@@H](Cc1c[nH]c2ccccc12)C(=O)N[C@@H](CC(C)C)C(=O)N[C@@H](CC(C)C)C(=O)N[C@@H](C)C(=O)N[C@@H](CCC(N)=O)C(=O)N[C@@H](CCCCN)C(N)=O)C(C)C)[C@@H](C)CC [AT305, [hGIP(3-30)NH2[M14K]-C16diacid/14]] (H-EGTFISDYSIAK(C16 diacid)DKIHQQDFVNWLLAQK-NH2; N-terminus assumed)	12%	166 nM		8 nM
CC[C@H](C)[C@H](NC(=O)[C@H](CO)NC(=O)[C@H](Cc1ccc(O)cc1)NC(=O)[C@H](CC(=O)O)NC(=O)[C@H](CO)NC(=O)[C@@H](NC(=O)[C@H](Cc1ccccc1)NC(=O)[C@@H](NC(=O)CNC(=O)[C@@H](N)CCC(=O)O)[C@@H](C)O)[C@@H](C)CC)C(=O)N[C@@H](C)C(=O)N[C@@H](CCSC)C(=O)N[C@@H](CCCCNC(=O)CCCCCCCCCCCCCCC(=O)O)C(=O)N[C@@H](CCCCN)C(=O)N[C@H](C(=O)N[C@@H](Cc1c[nH]cn1)C(=O)N[C@@H](CCC(N)=O)C(=O)N[C@@H](CCC(N)=O)C(=O)N[C@@H](CC(=O)O)C(=O)N[C@@H](Cc1ccccc1)C(=O)N[C@H](C(=O)N[C@@H](CC(N)=O)C(=O)N[C@@H](Cc1c[nH]c2ccccc12)C(=O)N[C@@H](CC(C)C)C(=O)N[C@@H](CC(C)C)C(=O)N[C@@H](C)C(=O)N[C@@H](CCC(N)=O)C(=O)N[C@@H](CCCCN)C(N)=O)C(C)C)[C@@H](C)CC [AT306, [hGIP(3-30)NH2[D15K]-C16diacid/15]] (H-EGTFISDYSIAMK(C16 diacid)KIHQQDFVNWLLAQK-NH2; N-terminus assumed)	6.6%	53 nM		13 nM
CC[C@H](C)[C@H](NC(=O)[C@H](CO)NC(=O)[C@H](Cc1ccc(O)cc1)NC(=O)[C@H](CC(=O)O)NC(=O)[C@H](CO)NC(=O)[C@@H](NC(=O)[C@H](Cc1ccccc1)NC(=O)[C@@H](NC(=O)CNC(=O)[C@@H](N)CCC(=O)O)[C@@H](C)O)[C@@H](C)CC)C(=O)N[C@@H](C)C(=O)N[C@@H](CCSC)C(=O)N[C@@H](CC(=O)O)C(=O)N[C@@H](CCCCN)C(=O)N[C@@H](CCCCNC(=O)CCCCCCCCCCCCCCC(=O)O)C(=O)N[C@@H](Cc1c[nH]cn1)C(=O)N[C@@H](CCC(N)=O)C(=O)N[C@@H](CCC(N)=O)C(=O)N[C@@H](CC(=O)O)C(=O)N[C@@H](Cc1ccccc1)C(=O)N[C@H](C(=O)N[C@@H](CC(N)=O)C(=O)N[C@@H](Cc1c[nH]c2ccccc12)C(=O)N[C@@H](CC(C)C)C(=O)N[C@@H](CC(C)C)C(=O)N[C@@H](C)C(=O)N[C@@H](CCC(N)=O)C(=O)N[C@@H](CCCCN)C(N)=O)C(C)C [AT307, [hGIP(3-30)NH2[I17K]-C16diacid/17]] (H-EGTFISDYSIAMDKK(C16 diacid)HQQDFVNWLLAQK-NH2; N-terminus assumed)	4.9%	93 nM		14 nM
